Starred links: 1 amine or outer side, 2 acyl side, 3 side chain; linkers in the order of their positions; H or OH if unused. Non-standard residues stand in square brackets, D forms with d. Residues, ends and D or L forms follow the SMILES beside them. X1 = O=C(C(O)[C@H](Cc1ccccc1)N[*:1])[*:2]; X2 = CC(C)C[C@H](N[*:1])C(O)C(=O)[*:2]; Thz(5,5-Me2) = CC1(C)SCN[C@@H]1C(=O)O
What was measured:
[1] = target: T1, Gag-Pro polyprotein (Human T-cell leukemia virus 1 (strain Japan ATK-1 subtype A) (HTLV-1)) (UniProt P10274); experiment: Percent inhibition of recombinant human T-cell leukemia virus type I (HTLV-1) protease was determined at 100 uM concentration; conditions: human T-cell leukemia virus type 1
T1 sequence (whole entry): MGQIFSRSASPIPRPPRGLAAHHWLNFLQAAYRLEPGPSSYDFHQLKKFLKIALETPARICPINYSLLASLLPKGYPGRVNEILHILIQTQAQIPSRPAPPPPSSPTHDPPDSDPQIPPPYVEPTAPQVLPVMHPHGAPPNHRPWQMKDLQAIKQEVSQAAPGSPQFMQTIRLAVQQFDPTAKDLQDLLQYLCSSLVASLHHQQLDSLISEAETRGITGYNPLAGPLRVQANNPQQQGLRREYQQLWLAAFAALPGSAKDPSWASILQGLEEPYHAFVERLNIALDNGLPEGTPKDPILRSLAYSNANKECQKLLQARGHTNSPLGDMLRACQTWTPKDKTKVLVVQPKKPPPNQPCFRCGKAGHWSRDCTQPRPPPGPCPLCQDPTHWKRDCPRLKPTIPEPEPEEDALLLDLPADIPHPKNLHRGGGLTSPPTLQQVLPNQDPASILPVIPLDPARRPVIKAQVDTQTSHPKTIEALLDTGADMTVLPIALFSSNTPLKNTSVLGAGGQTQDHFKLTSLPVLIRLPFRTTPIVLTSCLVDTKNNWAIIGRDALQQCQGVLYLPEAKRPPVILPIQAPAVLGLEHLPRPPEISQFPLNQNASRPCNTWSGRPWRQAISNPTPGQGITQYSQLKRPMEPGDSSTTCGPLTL

[2] = target: Human immunodeficiency virus type 1 protease (Human immunodeficiency virus 1) (UniProt Q72874); experiment: Percent inhibition of human immunodeficiency virus type I (HIV-1) protease was determined at 50 uM concentration
[3] = target: T1, Gag-Pro polyprotein (Human T-cell leukemia virus 1 (strain Japan ATK-1 subtype A) (HTLV-1)); experiment: Percent inhibition of synthesized human T-cell leukemia virus type I (HTLV-1) protease was determined at 100 uM concentration; conditions: human T-cell leukemia virus type 1
[4] = target: T1, Gag-Pro polyprotein (Human T-cell leukemia virus 1 (strain Japan ATK-1 subtype A) (HTLV-1)); experiment: Percent inhibition of recombinant human T-cell leukemia virus type I (HTLV-1) protease was determined at 50 uM concentration; conditions: Human T-cell lymphotrophic virus type 1 (strain ATK)
[5] = target: T1, Gag-Pro polyprotein (Human T-cell leukemia virus 1 (strain Japan ATK-1 subtype A) (HTLV-1)); experiment: Percent inhibition of synthesized human T-cell leukemia virus type I (HTLV-1) protease was determined at 50 uM concentration; conditions: Human T-cell lymphotrophic virus type 1 (strain ATK)
Gag-Pro polyprotein [6] = target: T2, Gag-Pro polyprotein (Human T-cell leukemia virus 1 (strain Japan ATK-1 subtype A) (HTLV-1), UniProt P10274); experiment: Inhibitory binding affinity towards recombinant human T-cell leukemia virus type I (HTLV-1) protease; set-up: species or system human T-cell leukemia virus type 1
T2 sequence (P10274 whole entry): T1 sequence (whole entry)

Gag-Pro polyprotein [7] = target: T2, Gag-Pro polyprotein; experiment: Inhibitory binding affinity towards synthesized human T-cell leukemia virus type I (HTLV-1) protease; set-up: species or system human T-cell leukemia virus type 1

Structure (SMILES) | inhibition [1] [%] | inhibition [2] [%] | inhibition [3] [%] | inhibition [4] [%] | inhibition [5] [%] | Ki (Gag-Pro polyprotein [6]) [µM] | Ki (Gag-Pro polyprotein [7]) [µM]
CC(C)c1nc(CN(C)C(=O)N[C@H](C(=O)N[C@@H](Cc2ccccc2)C[C@H](O)[C@H](Cc2ccccc2)NC(=O)OCc2cncs2)C(C)C)cs1 | 20 | 100 | 20 | – | – | – | –
Cc1c(O)cccc1C(=O)NC(Cc1ccccc1)C(O)C(=O)N1CSC(C)(C)C1C(=O)NC(C)(C)C (stereo not drawn) | 38 | 88 | 57 | – | – | – | –
Cc1cccc(C)c1OCC(=O)NC(Cc1ccccc1)C(O)C(=O)N1CSC(C)(C)C1C(=O)NC(C)(C)C (stereo not drawn) | 43 | 96 | 32 | – | – | – | –
Cc1ccccc1CNC(=O)C1N(C(=O)C(O)C(Cc2ccccc2)NC(=O)COc2c(C)cccc2C)CSC1(C)C (stereo not drawn) | 19 | 98 | 11 | – | – | – | –
Cc1ccccc1CNC(=O)C1N(C(=O)C(O)C(Cc2ccccc2)NC(=O)c2cccc(O)c2C)CSC1(C)C (stereo not drawn) | 31 | 96 | 79 | – | – | – | –
CSCC[C@H](NC(=O)[C@@H](NC(=O)[C@@H]1CCCN1C(=O)C(O)[C@H](Cc1ccccc1)NC(=O)[C@@H](NC(=O)[C@H](CCC(N)=O)NC(=O)[C@@H]1CCCN1)C(C)C)C(C)C)C(=O)N[C@@H](Cc1c[nH]cn1)C(=O)O (stereo partly drawn) (H-PQV[X1]PVMH-OH) | 94 | 6 | – | 54 | 59 | – | –
CSCC[C@H](NC(=O)[C@@H](NC(=O)[C@H]1N(C(=O)C(O)[C@H](Cc2ccccc2)NC(=O)[C@@H](NC(=O)[C@H](CCC(N)=O)NC(=O)[C@@H]2CCCN2)C(C)C)CSC1(C)C)C(C)C)C(=O)N[C@@H](Cc1cnc[nH]1)C(=O)O (stereo partly drawn) (H-PQV[X1][Thz(5,5-Me2)]VMH-OH) | – | – | – | – | – | 3.9 | 2
CSCC[C@H](NC(=O)[C@@H](NC(=O)[C@H]1N(C(=O)C(O)[C@H](Cc2ccccc2)NC(=O)[C@@H](NC(=O)[C@H](CCC(N)=O)NC(=O)[C@@H]2CCCN2)C(C)C)CSC1(C)C)C(C)C)C(=O)N[C@@H](Cc1c[nH]cn1)C(=O)O (stereo partly drawn) (H-PQV[X1][Thz(5,5-Me2)]VMH-OH) | 100 | 58 | – | 66 | 80 | – | –
CSCC[C@H](NC(=O)[C@@H](NC(=O)[C@@H]1CCCN1C(=O)C(O)[C@H](CC(C)C)NC(=O)[C@@H](NC(=O)[C@H](CCC(N)=O)NC(=O)[C@@H]1CCCN1)C(C)C)C(C)C)C(=O)N[C@@H](Cc1c[nH]cn1)C(=O)O (stereo partly drawn) (H-PQV[X2]PVMH-OH) | 93 | 3 | – | 43 | 58 | – | –
CSCC[C@H](NC(=O)[C@@H](NC(=O)[C@H]1N(C(=O)C(O)[C@H](CC(C)C)NC(=O)[C@@H](NC(=O)[C@H](CCC(N)=O)NC(=O)[C@@H]2CCCN2)C(C)C)CSC1(C)C)C(C)C)C(=O)N[C@@H](Cc1c[nH]cn1)C(=O)O (stereo partly drawn) (H-PQV[X2][Thz(5,5-Me2)]VMH-OH) | 100 | 37 | – | 63 | 76 | – | –
CC(C)CC(=O)N[C@H](C(=O)N[C@H](C(=O)N[C@@H](CC(C)C)[C@@H](O)CC(=O)N[C@@H](C)C(=O)N[C@@H](CC(C)C)[C@@H](O)CC(=O)O)C(C)C)C(C)C [PEPSTATIN] | – | 23 | – | 17 | 15 | 14.6 | 36.5
